Measurements published in EP3095787A1, “[…] ACTIVE COMPOUNDS AS DAG-LIPASE INHIBITORS” (Universiteit Leiden, priority 2015, dated 2016).

Assays:
hDAGL-α [1] = target: T1, hDAGL-α (Homo sapiens, UniProt Q9Y4D2); test: Biochemical hDAGL-α activity assay (PNP-butyrate hydrolysis, 96 well plate); set-up: expressed in transfected cells; host or cells: HEK293T (transient), membrane fraction; conditions: PNP-butyrate 0.3 mM, membranes of HEK293T cells transfected with hDAGL-α; for IC50: read-out: DAGL-α Activity assay pIC50 (converted)
T1 sequence (Q9Y4D2 1-1042): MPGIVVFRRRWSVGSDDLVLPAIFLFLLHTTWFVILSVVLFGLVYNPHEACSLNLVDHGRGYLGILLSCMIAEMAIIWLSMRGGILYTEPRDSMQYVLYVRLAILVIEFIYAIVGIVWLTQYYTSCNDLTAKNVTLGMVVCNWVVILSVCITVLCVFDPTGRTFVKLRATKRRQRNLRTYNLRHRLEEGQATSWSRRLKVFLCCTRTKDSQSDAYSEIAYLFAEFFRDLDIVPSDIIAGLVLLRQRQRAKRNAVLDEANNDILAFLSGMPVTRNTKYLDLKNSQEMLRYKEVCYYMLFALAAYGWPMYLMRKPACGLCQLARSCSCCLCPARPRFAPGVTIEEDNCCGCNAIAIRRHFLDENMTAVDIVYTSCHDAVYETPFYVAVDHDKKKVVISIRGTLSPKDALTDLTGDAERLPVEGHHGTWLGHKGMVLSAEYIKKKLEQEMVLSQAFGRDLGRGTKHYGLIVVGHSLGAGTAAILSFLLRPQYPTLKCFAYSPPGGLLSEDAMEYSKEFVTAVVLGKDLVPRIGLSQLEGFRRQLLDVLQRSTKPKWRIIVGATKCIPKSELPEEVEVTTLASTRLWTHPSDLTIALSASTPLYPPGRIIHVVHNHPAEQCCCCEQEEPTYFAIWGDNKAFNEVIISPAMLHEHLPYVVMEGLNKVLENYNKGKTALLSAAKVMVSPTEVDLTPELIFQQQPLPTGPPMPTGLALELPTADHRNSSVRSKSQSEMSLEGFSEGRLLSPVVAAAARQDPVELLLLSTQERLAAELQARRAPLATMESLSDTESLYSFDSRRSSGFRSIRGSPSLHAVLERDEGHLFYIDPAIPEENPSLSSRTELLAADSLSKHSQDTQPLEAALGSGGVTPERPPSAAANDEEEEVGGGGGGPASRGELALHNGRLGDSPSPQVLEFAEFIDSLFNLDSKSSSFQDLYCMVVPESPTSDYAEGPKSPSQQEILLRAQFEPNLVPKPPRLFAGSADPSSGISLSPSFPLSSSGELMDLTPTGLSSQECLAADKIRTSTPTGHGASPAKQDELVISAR
Experimental: The biochemical hDAGL-α activity assay is based on the hydrolysis of para-nitrophenylbutyrate (PNP-butyrate) by membrane preparations from HEK293T cells transiently transfected with hDAGL-α. 200 µL reactions were performed in flat bottom Greiner 96-wells plates in a 50 mM pH 7.2 Hepes buffer. Membrane protein fractions from HEK293T cells transiently transfected with hDAGL-α (0.05 µg/µL final concentration) were used as hDAGL-α source. Compounds to be tested were introduced in 5 µL DMSO. The mixtures were incubated for 30 minutes before 5.0 µL 12 mM PNP-butyrate (final concentration 0.3 mM) in DMSO was added (final DMSO concentration 5.0%). Kinetics were followed immediately after addition of PNP-butyrate on a plate reader (TECAN GENios® microplate reader), by measuring the OD420 every 60 seconds, for 20 minutes at 37°C. The slope of the linear region from 5-15 minutes was determined, and all experiments were performed at N = 2, n = 2 for experimental measurements and N = 2, n = 4 for controls.
Data analysis: Z'-factor of each plate was determined for the validation of each experiment, using the following formula Z' = 1-3(σpc + σnc)/(µpc - µnc). The slope from 5-15 minutes of the positive control (pc: hDAGL-α, DMSO), and the negative control (nc: Mock, DMSO) was used. Plates were accepted for further analysis when Z' > 0.6. Kinetic measurements were corrected for the average absorption of the negative control (mock, DMSO). The slope of the linear region from 5-15 minutes was determined. The average, standard deviation (SD) and standard error of mean (SEM) were calculated and normalized to the corrected positive control. Data was exported to Graphpad Prism 5.0 for the calculation of the pIC50 using a nonlinear dose-response analysis.

FAAH = target: T2, FAAH (Mus musculus, UniProt O08914); test: Gel based competitive ABPP selectivity assay with TAMRA-FP in mouse brain proteome (FAAH band); format: biochemical; conditions: 10 µM inhibitor; TAMRA-FP 500 nM; mouse brain proteome; vehicle set to 100%
T2 construct: For gel based ABPP experiments mouse brain proteome (2.0 mg/mL, 20 µL) was preincubated; from tissue; host or cells: mouse brain proteome
T2 sequence (O08914 1-579): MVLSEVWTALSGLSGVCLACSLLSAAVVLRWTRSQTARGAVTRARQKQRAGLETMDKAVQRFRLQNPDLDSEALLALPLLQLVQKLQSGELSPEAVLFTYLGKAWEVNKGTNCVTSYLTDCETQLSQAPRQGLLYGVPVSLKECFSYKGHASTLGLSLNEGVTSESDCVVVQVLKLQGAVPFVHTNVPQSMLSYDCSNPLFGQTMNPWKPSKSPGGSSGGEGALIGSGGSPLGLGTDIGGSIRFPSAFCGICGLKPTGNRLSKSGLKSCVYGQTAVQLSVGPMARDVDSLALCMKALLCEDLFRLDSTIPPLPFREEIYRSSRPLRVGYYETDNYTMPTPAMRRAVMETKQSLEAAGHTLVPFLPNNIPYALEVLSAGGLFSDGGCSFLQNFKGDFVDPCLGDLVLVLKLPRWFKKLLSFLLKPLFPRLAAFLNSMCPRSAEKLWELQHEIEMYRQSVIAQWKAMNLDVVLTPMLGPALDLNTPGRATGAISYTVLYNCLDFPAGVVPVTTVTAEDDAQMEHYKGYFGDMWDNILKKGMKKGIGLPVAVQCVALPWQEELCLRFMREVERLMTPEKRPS
Experimental: (§1) For gel based ABPP experiments mouse brain proteome (2.0 mg/mL, 20 µL) was preincubated for 30 min with vehicle (DMSO) or compound to be tested in 0.5 µL DMSO at rt. And subsequently treated with 500 nM (final concentration) TAMRA-FP (TAMRA-FP was bought at Thermo Fischer) for 15 minutes at rt. The reactions were quenched with 10 µL standard 3 x SDS page sample buffer. The samples were directly loaded and resolved on SDS page gel (10 % acrylamide). The gels were scanned with a ChemiDoc MP sytem (Biorad, Cy 3 settings, 605/50 filter) and analyzed using Image Lab 4.1.
The percentage effect on FAAH was determined by measuring the integrated optical intensity of the band corresponding to FAAH (∼ 63 kD for mouse) using Image lab software. This activity was corrected for the total protein loading per lane as determined by coomassie staining and imaging with a ChemiDoc™ MP sytem (Biorad) followed by determination of the integrated optical intensity per lane by using Image Lab 4.1 software. The intensity of the protein bands from the samples treated with vehicle was set to 100%. […] N/A means less than 50% probe displacement at 10 µM inhibitor concentration.

hDAGL-α [2] = target: T1, hDAGL-α; test: Mode of action (reversibility) experiment: size exclusion chromatography, then MB064 labeling; format: biochemical; set-up: expressed in transfected cells; conditions: pre-incubation at IC80 concentration; remaining activity visualized with MB064; n=3
Experimental: To determine the mode of action (reversible versus irreversible) of the inventive compounds, an experiment in which human DAGL-α membranes were pre-incubated at the IC80 concentration of compound 25 or the irreversible DAGL inhibitor KT-109 was performed.

serine hydrolases = test: Comparative and competitive gel ABPP selectivity in mouse brain membrane proteome (TAMRA-FP and MB064); format: biochemical; conditions: 1 µM; including ABHD6 and ABHD12
Experimental: as §1
To investigate the selectivity of compound 25 in the mouse brain proteome comparative and competitive ABPP was used with a broad-spectrum FP-based probe (TAMRA-FP) and the tailored DAGL-α ABP MB064. As a reference the widely used β-lactone-based DAGL-inhibitors THL and OMDM-188, two broad-spectrum covalent and irreversible serine hydrolase inhibitors, were firstly tested.

| Compound | FAAH ABPP (10 µm) % Eff. (FAAH) | IC50 (hDAGL-α [1]) [nM] | further results |
| --- | --- | --- | --- |
| 1-(4-fluoro-6-(2-fluorophenyl)benzo[d]oxazol-2-yl)-6-phenylhexan-1-one [Compound 31] | N/A (N/A means less than 50% probe displacement at 10 µM inhibitor concentration) |  | DAGL-α Activity assay pIC50 (hDAGL-α [1]): 8.6 |
| Cc1ccc(-c2cnc3nc(C(=O)CCc4ccccc4Oc4ccccc4)oc3c2)cc1 [Compound 26, 3-(2-phenoxyphenyl)-1-(6-(p-tolyl)oxazolo[4,5-b]pyridin-2-yl)propan-1-one] | N/A (N/A means less than 50% probe displacement at 10 µM inhibitor concentration) | 8.32 |  |
| Cc1ccc(-c2cnc3nc(C(=O)CCc4cccc(Oc5ccccc5)c4)oc3c2)cc1 [Compound 27, 3-(3-Phenoxyphenyl)-1-(6-(p-tolyl)oxazolo[4,5-b]pyridin-2-yl)propan-1-one] | N/A (N/A means less than 50% probe displacement at 10 µM inhibitor concentration) | 3.72 |  |
| Cc1ccc(-c2cnc3nc(C(=O)CCc4ccc(Oc5ccccc5)cc4)oc3c2)cc1 [Compound 28, 3-(4-phenoxyphenyl)-1-(6-(p-tolyl)oxazolo[4,5-b]pyridin-2-yl)propan-1-one] | N/A (N/A means less than 50% probe displacement at 10 µM inhibitor concentration) | 5.13 |  |
| Cc1ccc(-c2cnc3nc(C(=O)CCc4ccc(Oc5ccc(C(F)(F)F)cn5)cc4)oc3c2)cc1 [Compound 29, 1-(6-(p-Tolyl)oxazolo[4,5-b]pyridin-2-yl)-3-(4-((5-(trifluoromethyl)pyridin-2-yl)oxy)phenyl)propan-1-one] | N/A (N/A means less than 50% probe displacement at 10 µM inhibitor concentration) | 0.851 |  |
| O=C(CCCCCc1ccccc1)c1nc2c(F)cc(-c3ccc(F)cc3)cc2o1 [Compound 30, 1-(4-fluoro-6-(4-fluorophenyl)benzo[d]oxazol-2-yl)-6-phenylhexan-1-one] | N/A (N/A means less than 50% probe displacement at 10 µM inhibitor concentration) | 5.01 |  |
| Cc1ccc(-c2cc(F)c3nc(C(=O)CCCCCc4ccccc4)oc3c2)cc1 [Compound 32, 1-(4-fluoro-6-(p-tolyl)benzo[d]oxazol-2-yl)-6-phenylhexan-1-one] | N/A (N/A means less than 50% probe displacement at 10 µM inhibitor concentration) | 1.41 |  |
| Cc1ccccc1-c1cc(F)c2nc(C(=O)CCCCCc3ccccc3)oc2c1 [Compound 33, 1-(4-fluoro-6-(o-tolyl)benzo[d]oxazol-2-yl)-6-phenylhexan-1-one] | N/A (N/A means less than 50% probe displacement at 10 µM inhibitor concentration) | 1.32 |  |
| O=C(N1CCCCC1Cc1ccccc1)n1cc(-c2ccc(-c3ccccc3)cc2)nn1 (stereo not shown) [KT-109, reference compound] |  |  | recovery of DAGL-α activity after size exclusion chromatography (hDAGL-α [2]): No recovery of DAGL-α activity |
| CCCCCCCCCCC[C@@H](C[C@@H]1OC(=O)[C@H]1CCCCCC)OC(=O)[C@@H](NC=O)[C@@H](C)CC [OMDM-188, reference compound] |  |  | number of serine hydrolases whose labeling is blocked (serine hydrolases): at least 4 |
| CCCCCCCCCCC[C@@H](C[C@@H]1OC(=O)[C@H]1CCCCCC)OC(=O)[C@H](CC(C)C)NC=O [THL, Tetrahydrolipstatin, reference compound] |  |  | number of serine hydrolases whose labeling is blocked (serine hydrolases): at least 4 |
